Test results reported in PubChem BioAssay (NCI).
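Values below derive from 48-hour exposures of cells grown in 96-well plates, with endpoints linearly interpolated between the two concentrations bracketing the appropriate inhibition level. GI50 is the concentration that inhibits growth by half. TGI marks complete inhibition of growth.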 Where a SMILES comes first, the peptide text is derived from it. [ ]: non-standard residue; d: D form. The star is where a group is joined. Lauroyl = CCCCCCCCCCCC(=O)*; Aib = CC(C)(N)C(=O)O; βAla = NCCC(=O)O

How the values were obtained:
Assay in all cases: inhibition of tumour cell growth, NCI panel, 48 h
SNB-19 CNS = system: SNB-19 CNS
SK-MEL-5 melanoma = system: SK-MEL-5 melanoma
A549 NSCLC = system: A549 NSCLC
NCI-H522 lung = system: NCI-H522 lung
NCI-H226 lung = system: NCI-H226 lung
SF-295 CNS = system: SF-295 CNS
RXF 393 renal = system: RXF 393 renal
NCI-H460 lung = system: NCI-H460 lung
OVCAR-4 ovarian = system: OVCAR-4 ovarian
HS 578T breast = system: HS 578T breast
MDA-MB-435 = system: MDA-MB-435
CCRF-CEM leukemia = system: CCRF-CEM leukemia
SF-268 CNS = system: SF-268 CNS
HCC-2998 colon = system: HCC-2998 colon
SR leukemia = system: SR leukemia
UACC-62 melanoma = system: UACC-62 melanoma
SF-539 CNS = system: SF-539 CNS
MCF7 breast = system: MCF7 breast
RPMI-8226 leukemia = system: RPMI-8226 leukemia
LOX IMVI melanoma = system: LOX IMVI melanoma
OVCAR-8 ovarian = system: OVCAR-8 ovarian
MDA-MB-231 breast = system: MDA-MB-231 breast
SN12C renal = system: SN12C renal
UACC-257 melanoma = system: UACC-257 melanoma
M14 melanoma = system: M14 melanoma
HOP-62 NSCLC = system: HOP-62 NSCLC
TK-10 renal = system: TK-10 renal
KM12 colon = system: KM12 colon
HOP-92 NSCLC = system: HOP-92 NSCLC
SK-MEL-28 melanoma = system: SK-MEL-28 melanoma
SK-OV-3 ovarian = system: SK-OV-3 ovarian
COLO 205 colon = system: COLO 205 colon
ACHN renal = system: ACHN renal
CAKI-1 renal = system: CAKI-1 renal
HCT-116 colon = system: HCT-116 colon
T-47D breast = system: T-47D breast
SK-MEL-2 melanoma = system: SK-MEL-2 melanoma
786-0 renal = system: 786-0 renal
PC-3 prostate = system: PC-3 prostate
K-562 leukemia = system: K-562 leukemia
OVCAR-3 ovarian = system: OVCAR-3 ovarian
SNB-75 CNS = system: SNB-75 CNS
MALME-3M melanoma = system: MALME-3M melanoma
EKVX NSCLC = system: EKVX NSCLC
BT-549 breast = system: BT-549 breast
OVCAR-5 ovarian = system: OVCAR-5 ovarian
HT29 colon = system: HT29 colon
U251 CNS = system: U251 CNS
IGROV1 ovarian = system: IGROV1 ovarian
DU-145 prostate = system: DU-145 prostate
HCT-15 colon = system: HCT-15 colon
NCI-H23 lung = system: NCI-H23 lung
NCI/ADR-RES ovarian = system: NCI/ADR-RES ovarian
SW-620 colon = system: SW-620 colon
UO-31 renal = system: UO-31 renal
A498 renal = system: A498 renal

## CCCCCCCCCCCC(=O)NC(C)(C)C(=O)N1CCCC1C(=O)NC(C)(C)C(=O)NC(C)(C)C(=O)N1CCCC1C(=O)NC(C)(C)C(=O)NC(C)(C)C(=O)N1CCCC1C(=O)NC(C)C(=O)NCCC(=O)NC(C)C(=O)NC(C)(C)C(=O)NC(C)(C)C(=O)NC(C)(C)C(=O)NCCC(=O)NC(C)(C)C(=O)NC(C)(C)C(=O)NC(C)(C)C(=O)NC(C)C(=O)NCCC(=O)O (configuration not stated) (Lauroyl-[Aib]P[Aib][Aib]P[Aib][Aib]PA[βAla]A[Aib][Aib][Aib][βAla][Aib][Aib][Aib]A[βAla]-OH; configuration not given here)
SNB-19 CNS
  GI50: 423 nM
  TGI: 1210 nM
SK-MEL-5 melanoma
  GI50: 327 nM
  TGI: 652 nM
A549 NSCLC
  GI50: 310 nM
  TGI: 635 nM
NCI-H522 lung
  GI50: 307 nM
  TGI: 621 nM
NCI-H226 lung
  GI50: 435 nM
  TGI: 1230 nM
SF-295 CNS
  GI50: 349 nM
  TGI: 873 nM
RXF 393 renal
  GI50: 291 nM
  TGI: 527 nM
NCI-H460 lung
  GI50: 310 nM
  TGI: 577 nM
OVCAR-4 ovarian
  GI50: 296 nM
  TGI: 545 nM
HS 578T breast
  GI50: 271 nM
  TGI: 711 nM
MDA-MB-435
  GI50: 422 nM
  TGI: 1040 nM
CCRF-CEM leukemia
  GI50: 375 nM
  TGI: 818 nM
SF-268 CNS
  GI50: 404 nM
  TGI: 1100 nM
HCC-2998 colon
  GI50: 533 nM
  TGI: 1960 nM
SR leukemia
  GI50: 352 nM
  TGI: 884 nM
UACC-62 melanoma
  GI50: 325 nM
  TGI: 724 nM
SF-539 CNS
  GI50: 298 nM
  TGI: 576 nM
MCF7 breast
  GI50: 368 nM
  TGI: 906 nM
RPMI-8226 leukemia
  GI50: 166 nM
  TGI: 561 nM
LOX IMVI melanoma
  GI50: 286 nM
  TGI: 535 nM
OVCAR-8 ovarian
  GI50: 357 nM
  TGI: 827 nM
MDA-MB-231 breast
  GI50: 344 nM
  TGI: 780 nM
SN12C renal
  GI50: 296 nM
  TGI: 672 nM
UACC-257 melanoma
  GI50: 387 nM
  TGI: 1080 nM
M14 melanoma
  GI50: 387 nM
  TGI: 1010 nM
HOP-62 NSCLC
  GI50: 325 nM
  TGI: 683 nM
TK-10 renal
  GI50: 388 nM
  TGI: 1180 nM
KM12 colon
  GI50: 478 nM
  TGI: 1320 nM
HOP-92 NSCLC
  GI50: 238 nM
  TGI: 515 nM
SK-MEL-28 melanoma
  GI50: 437 nM
  TGI: 1360 nM
SK-OV-3 ovarian
  GI50: 325 nM
  TGI: 623 nM
COLO 205 colon
  GI50: 344 nM
  TGI: 721 nM
ACHN renal
  GI50: 341 nM
  TGI: 667 nM
CAKI-1 renal
  GI50: 279 nM
  TGI: 536 nM
HCT-116 colon
  GI50: 300 nM
  TGI: 547 nM
T-47D breast
  GI50: 440 nM
  TGI: 1440 nM
SK-MEL-2 melanoma
  GI50: 345 nM
  TGI: 765 nM
786-0 renal
  GI50: 280 nM
  TGI: 513 nM
PC-3 prostate
  GI50: 319 nM
  TGI: 689 nM
K-562 leukemia
  GI50: 337 nM
  TGI: 822 nM
OVCAR-3 ovarian
  GI50: 444 nM
  TGI: 1130 nM
SNB-75 CNS
  GI50: 238 nM
  TGI: 527 nM
MALME-3M melanoma
  GI50: 346 nM
  TGI: 796 nM
EKVX NSCLC
  GI50: 349 nM
  TGI: 790 nM
BT-549 breast
  GI50: 151 nM
  TGI: 383 nM
OVCAR-5 ovarian
  GI50: 467 nM
  TGI: 1590 nM
HT29 colon
  GI50: 480 nM
  TGI: 1350 nM
U251 CNS
  GI50: 254 nM
  TGI: 500 nM
IGROV1 ovarian
  GI50: 377 nM
  TGI: 1170 nM
DU-145 prostate
  GI50: 441 nM
  TGI: 1110 nM
HCT-15 colon
  GI50: 322 nM
  TGI: 652 nM
NCI-H23 lung
  GI50: 303 nM
  TGI: 583 nM
NCI/ADR-RES ovarian
  GI50: 370 nM
  TGI: 833 nM
SW-620 colon
  GI50: 400 nM
  TGI: 986 nM
UO-31 renal
  GI50: 669 nM
  TGI: 1700 nM
A498 renal
  GI50: 375 nM
  TGI: 860 nM
